Among the data in patent publication US9902696B2, “1,4-substituted piperidine derivatives” (Cephalon, Inc., priority 2015, dated 2018) are IC50 values, retold here.

Counter-ions that a name gives are not always drawn.

T1 sequence (P49327 whole entry): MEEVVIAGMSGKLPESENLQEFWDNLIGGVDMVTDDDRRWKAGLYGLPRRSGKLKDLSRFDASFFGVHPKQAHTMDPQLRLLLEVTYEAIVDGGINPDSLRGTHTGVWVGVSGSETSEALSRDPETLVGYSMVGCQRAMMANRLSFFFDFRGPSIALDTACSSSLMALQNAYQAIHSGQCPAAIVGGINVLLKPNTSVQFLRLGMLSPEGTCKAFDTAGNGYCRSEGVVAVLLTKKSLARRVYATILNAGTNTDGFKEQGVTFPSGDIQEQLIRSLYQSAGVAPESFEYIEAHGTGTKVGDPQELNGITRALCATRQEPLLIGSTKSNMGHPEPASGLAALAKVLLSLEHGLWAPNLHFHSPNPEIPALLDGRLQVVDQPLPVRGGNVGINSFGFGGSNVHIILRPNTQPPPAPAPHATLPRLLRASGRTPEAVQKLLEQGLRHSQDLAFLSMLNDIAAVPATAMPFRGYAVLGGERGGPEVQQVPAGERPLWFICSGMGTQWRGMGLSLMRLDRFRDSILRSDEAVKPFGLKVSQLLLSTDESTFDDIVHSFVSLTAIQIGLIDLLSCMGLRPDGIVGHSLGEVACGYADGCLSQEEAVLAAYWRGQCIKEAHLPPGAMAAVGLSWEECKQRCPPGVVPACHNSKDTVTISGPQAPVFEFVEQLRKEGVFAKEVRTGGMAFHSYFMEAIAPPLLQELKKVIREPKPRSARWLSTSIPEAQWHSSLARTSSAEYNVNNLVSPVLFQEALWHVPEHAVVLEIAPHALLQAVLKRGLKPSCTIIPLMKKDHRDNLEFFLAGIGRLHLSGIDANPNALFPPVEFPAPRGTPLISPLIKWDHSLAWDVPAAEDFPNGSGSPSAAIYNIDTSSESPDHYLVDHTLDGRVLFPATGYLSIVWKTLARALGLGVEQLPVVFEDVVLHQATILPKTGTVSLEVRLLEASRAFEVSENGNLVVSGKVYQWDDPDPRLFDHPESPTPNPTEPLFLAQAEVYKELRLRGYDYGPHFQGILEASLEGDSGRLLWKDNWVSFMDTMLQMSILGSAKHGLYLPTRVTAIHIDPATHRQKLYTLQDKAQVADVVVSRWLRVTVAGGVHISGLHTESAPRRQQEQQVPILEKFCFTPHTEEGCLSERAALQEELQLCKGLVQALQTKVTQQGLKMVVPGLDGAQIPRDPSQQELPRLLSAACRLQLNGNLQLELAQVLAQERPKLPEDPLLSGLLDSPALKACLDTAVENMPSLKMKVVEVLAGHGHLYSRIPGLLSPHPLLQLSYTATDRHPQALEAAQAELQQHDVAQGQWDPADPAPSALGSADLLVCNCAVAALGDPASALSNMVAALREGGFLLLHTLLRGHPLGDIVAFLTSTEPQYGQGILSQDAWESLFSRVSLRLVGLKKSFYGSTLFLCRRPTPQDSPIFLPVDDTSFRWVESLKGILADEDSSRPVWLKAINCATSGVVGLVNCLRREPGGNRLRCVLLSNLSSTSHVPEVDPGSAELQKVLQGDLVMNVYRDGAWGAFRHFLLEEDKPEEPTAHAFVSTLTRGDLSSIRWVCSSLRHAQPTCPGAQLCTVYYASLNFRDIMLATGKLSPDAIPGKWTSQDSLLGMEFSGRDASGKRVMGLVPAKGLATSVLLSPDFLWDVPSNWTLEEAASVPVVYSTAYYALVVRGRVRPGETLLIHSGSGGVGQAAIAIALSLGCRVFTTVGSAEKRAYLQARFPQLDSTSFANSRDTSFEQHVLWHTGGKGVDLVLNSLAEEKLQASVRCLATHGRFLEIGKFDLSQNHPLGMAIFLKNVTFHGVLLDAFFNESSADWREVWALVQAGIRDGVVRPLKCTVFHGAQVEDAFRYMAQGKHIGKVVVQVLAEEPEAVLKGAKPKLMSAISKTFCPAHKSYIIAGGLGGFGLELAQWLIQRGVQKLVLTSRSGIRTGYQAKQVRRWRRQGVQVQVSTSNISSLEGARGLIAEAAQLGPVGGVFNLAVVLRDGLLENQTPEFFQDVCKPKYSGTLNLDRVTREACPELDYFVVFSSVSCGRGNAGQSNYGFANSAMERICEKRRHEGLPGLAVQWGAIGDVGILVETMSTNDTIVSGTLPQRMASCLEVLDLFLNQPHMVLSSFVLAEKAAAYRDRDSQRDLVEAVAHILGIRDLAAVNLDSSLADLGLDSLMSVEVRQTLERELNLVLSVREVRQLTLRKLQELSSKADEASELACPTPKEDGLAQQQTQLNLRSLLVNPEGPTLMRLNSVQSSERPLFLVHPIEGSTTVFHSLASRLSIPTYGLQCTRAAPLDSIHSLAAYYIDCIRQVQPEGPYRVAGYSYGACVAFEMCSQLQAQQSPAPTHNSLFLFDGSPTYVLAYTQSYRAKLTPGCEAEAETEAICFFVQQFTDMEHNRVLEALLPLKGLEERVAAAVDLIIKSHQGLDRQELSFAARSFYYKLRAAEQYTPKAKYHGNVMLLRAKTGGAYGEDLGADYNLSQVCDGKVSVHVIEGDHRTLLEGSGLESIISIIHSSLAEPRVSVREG

The assay concerns the target T1, recombinant human baculovirus-expressed GST-tagged FASN (Homo sapiens, UniProt P49327).
T1 construct: GST
Put plainly: FASN enzyme activity assay, fluorescence-based detection of CoA with CPM. Type of assay: biochemical. The conditions noted are these: 5 nM FASN, 150 μM NADPH, 10 μM acetyl-CoA, 25 μM malonyl-CoA, 90 minutes incubation; read-out: IC50 data for Compounds of Formulae I-V/V(a): Activity. The method, boiled down:
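CoA product reacted with thiol-reactive CPM (diluted to 50 μM in 70% ethanol), read at 390/530 nm after 30 min. Preceding reaction: 90 min, 5 nM recombinant GST-FASN, 150 μM NADPH, 10 μM acetyl-CoA, 25 μM malonyl-CoA, pH 7.5 HEPES, 0.5% DMSO. IC50s fitted by nonlinear sigmoidal regression.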
For `CCc1cc2cc(-c3ccc(OC4CCN(C(=O)[C@H]5CCCO5)CC4)cc3)ccc2cn1` [Example 476, {4-[4-(3-Ethylisoquinolin-6-yl)-phenoxy]-piperidin-1-yl}-(R)-tetrahydro-furan-2-yl-methanone], the IC50 is 1 to 99 nM.
Regarding `O=C(C1CC1)N1CCC(Oc2ccc(-c3cnc4cc(F)ccc4c3)cc2)CC1` [Example 477, Cyclopropyl-{4-[4-(7-fluoroquinolin-3-yl)-phenoxy]-piperidin-1-yl}-methanone], the IC50 was in the range of 1 to 99 nM.
On to `CCC(=O)N1CCC(Oc2ccc(-c3cnc4cc(F)ccc4c3)cc2)CC1` [Example 478, 1-{4-[4-(7-Fluoroquinolin-3-yl)-phenoxy]-piperidin-1-yl}-propan-1-one], for which the IC50 was 1 to 99 nM.
For `O=C([C@H]1CCCO1)N1CCC(Oc2ccc(-c3cnc4cc(F)ccc4c3)cc2)CC1` [Example 479, {4-[4-(7-Fluoroquinolin-3-yl)-phenoxy]-piperidin-1-yl}-(R)-tetrahydro-furan-2-yl-methanone] the value was 1 to 99 nM; for `O=C([C@H]1CCCO1)N1CCC(Oc2ccc(-c3ccc4cnc(C5CC5)cc4c3)cc2)CC1` [Example 480, {4-[4-(3-Cyclopropylisoquinolin-6-yl)-phenoxy]-piperidin-1-yl}-(R)-tetra-hy drofuran-2-yl-methanone], 1 to 99 nM.
Turning to `Cc1nccc2cc(-c3ccc(OC4CCN(C(=O)C5CC5)CC4)cc3)ccc12` [Example 481, Cyclopropyl-{4-[4-(1-methylisoquinolin-6-yl)-phenoxy]-piperidin-1-yl}-methanone], the IC50 lay within 1 to 99 nM.
For `Cc1ccc2cc(-c3ccc(OC4CCN(C(=O)[C@H]5CCCO5)CC4)cc3)cnc2c1` [Example 482] the value was 1 to 99 nM; for `CCC(=O)N1CCC(Oc2ccc(-c3cnc4ccc(C)cc4c3)cc2)CC1` [Example 483, 1-{4-[4-(6-Methylquinolin-3-yl)-phenoxy]-piperidin-1-yl}-propan-1-one, HCl], 1 to 99 nM.
For `Cc1ccc2ncc(-c3ccc(OC4CCN(C(=O)C5CC5)CC4)cc3)cc2c1` [Example 484, Cyclopropyl-{4-[4-(6-methylquinolin-3-yl)-phenoxy]-piperidin-1-yl}-methanone, HCl] the value was 100 to 999 nM; for `Cc1ccc2ncc(-c3ccc(OC4CCN(C(=O)[C@H]5CCCO5)CC4)cc3)cc2c1` [Example 485, {4-[4-(6-Methylquinolin-3-yl)-phenoxy]-piperidin-1-yl}-(R)-tetrahydro-furan-2-yl-methanone, HCl], 1 to 99 nM; for `CCC(=O)N1CCC(Oc2ccc(-c3cnc4c(C)cccc4c3)cc2)CC1` [Example 486, 1-{4-[4-(8-Methylquinolin-3-yl)-phenoxy]-piperidin-1-yl}-propan-1-one, HCl], 1 to 99 nM.
For `Cc1cccc2cc(-c3ccc(OC4CCN(C(=O)C5CC5)CC4)cc3)cnc12` [Example 487, Cyclopropyl-{4-[4-(8-methylquinolin-3-yl)-phenoxy]-piperidin-1-yl}-methanone] the value was 1 to 99 nM.
With `Cc1cccc2cc(-c3ccc(OC4CCN(C(=O)[C@H]5CCCO5)CC4)cc3)cnc12` [Example 488, {4-[4-(8-Methylquinolin-3-yl)-phenoxy]-piperidin-1-yl}-(R)-tetrahydro-furan-2-yl-methanone], the IC50 was 1 to 99 nM.
For `COc1ccc(-c2ccc(OC3CCN(C(=O)OC(C)(C)C)CC3)cc2)cc1OC` [Example 489, 4-(3′,4′-Dimethoxybiphenyl-4-yloxy)-piperidine-1-carboxylic acid t-butyl ester] the value was 1000 to 10000 nM.
Consider `CC(C)(C)OC(=O)N1CCC(Oc2ccc(-c3ccc(C#N)cc3)cc2)CC1` [Example 490, 4-(4′-Cyano-biphenyl-4-yloxy)-piperidine-1-carboxylic acid t-butyl ester], for which the IC50 is 1000 to 10000 nM.
For `CCC(=O)N1CCC(Oc2ccc(-c3ccc(OC)c(OC)c3)cc2)CC1` [Example 491, 1-[4-(3′,4′-Dimethoxy-biphenyl-4-yloxy)-piperidin-1-yl]-propan-1-one] the value was 100 to 999 nM; for `COc1ccc(-c2ccc(OC3CCN(C(=O)C(C)C)CC3)cc2)cc1OC` [Example 492, 1-[4-(3′,4′-Dimethoxybiphenyl-4-yloxy)-piperidin-1-yl]-2-methyl-propan-1-one], 1000 to 10000 nM; for `CCC(=O)N1CCC(Oc2ccc(-c3ccc(C#N)cc3)cc2)CC1` [Example 493, 4′-(1-Propionyl-piperidin-4-yloxy)-biphenyl-4-carbonitrile], 1000 to 10000 nM.
For `CC(C)C(=O)N1CCC(Oc2ccc(-c3ccc(C#N)cc3)cc2)CC1` [Example 494, 4′-(1-Isobutyrylpiperidin-4-yloxy)-biphenyl-4-carbonitrile] the value was 1000 to 10000 nM; for `N#Cc1ccc(-c2ccc(OC3CCN(C(=O)C4CC4)CC3)cc2)cc1` [Example 495, 4′-(1-Cyclopropanecarbonyl-piperidin-4-yloxy)-biphenyl-4-carbonitrile], 100 to 999 nM; for `CCC(=O)N1CCC(Oc2cccc(-c3cnc4ccccc4c3)c2)CC1` [Example 496, 1-[4-(3-Quinolin-3-yl-phenoxy)-piperidin-1-yl]-propan-1-one], 1000 to 10000 nM.
Regarding `O=C(C1CC1)N1CCC(Oc2cccc(-c3cnc4ccccc4c3)c2)CC1` [Example 497, Cyclopropyl-[4-(3-quinolin-3-yl-phenoxy)-piperidin-1-yl]-methanone], the IC50 lay in the range of 1000 to 10000 nM.
Regarding `CCC(=O)N1CCC(Oc2ccc(-c3cnc(OC)c(OC)c3)cc2)CC1` [Example 498, 1-{4-[4-(5,6-Dimethoxypyridin-3-yl)-phenoxy]-piperidin-1-yl}-propan-1-one], the IC50 was 1000 to 10000 nM.
`COc1cc(-c2ccc(OC3CCN(C(=O)C4CC4)CC3)cc2)cnc1OC` [Example 499, Cyclopropyl-{4-[4-(5,6-dimethoxypyridin-3-yl)-phenoxy]-piperidin-1-yl}-methanone]: the IC50 lay in the range of 1000 to 10000 nM.
For the compound `CCC(=O)N1CCC(Oc2ccc(-c3ccc(Cl)c(Cl)c3)cc2)CC1` [Example 500, 1-[4-(3′,4′-Dichlorobiphenyl-4-yloxy)-piperidin-1-yl]-propan-1-one], the IC50 fell in the range of 1000 to 10000 nM.
For `O=C(C1CC1)N1CCC(Oc2ccc(-c3ccc(Cl)c(Cl)c3)cc2)CC1` [Example 501, Cyclopropyl-[4-(3′,4′-dichlorobiphenyl-4-yloxy)-piperidin-1-yl]-methanone] the value was 1000 to 10000 nM; for `CCC(=O)N1CCC(Oc2ccc(-c3ccc4c(c3)OCCO4)cc2)CC1` [Example 502, 1-{4-[4-(2,3-Dihydro-1,4-benzodioxin-6-yl)-phenoxy]-piperidin-1-yl}-propan-1-one], 1000 to 10000 nM; for `O=C(C1CC1)N1CCC(Oc2ccc(-c3ccc4c(c3)OCCO4)cc2)CC1` [Example 503, Cyclopropyl-{4-[4-(2,3-dihydro-1,4-benzodioxin-6-yl)-phenoxy]-piperidin-1-yl}-methanone], 1000 to 10000 nM.
Take `CCC(=O)N1CCC(Oc2ccc(-c3ccc(OCc4ccccc4)cc3F)cc2)CC1` [Example 504, 1-[4-(4′-Benzyloxy-2′-fluoro-biphenyl-4-yloxy)-piperidin-1-yl]-propan-1-one]: the IC50 lay within 1000 to 10000 nM.
In the case of `O=C(C1CC1)N1CCC(Oc2ccc(-c3ccc(OCc4ccccc4)cc3F)cc2)CC1` [Example 505, [4-(4′-Benzyloxy-2′-fluorobiphenyl-4-yloxy)-piperidin-1-yl]-cyclopropyl-methanone], the IC50 lay within 1000 to 10000 nM.
